Results from PMC5727165, “A switch in nucleotide affinity governs activation of the Src and Tec family kinases” (Scientific Reports, 2017).
Read-outs that look alike come from different tables or passages of the source.

Biological target: T1, Itk^32K L351A (Homo sapiens, UniProt Q08881, L351A)
T1 construct: Human Itk^171–620 (Itk^32K); GST (cleaved yes); made in house; host or cells: baculovirus-infected Sf9 insect cells
T1 sequence (Q08881 171-620 L351A): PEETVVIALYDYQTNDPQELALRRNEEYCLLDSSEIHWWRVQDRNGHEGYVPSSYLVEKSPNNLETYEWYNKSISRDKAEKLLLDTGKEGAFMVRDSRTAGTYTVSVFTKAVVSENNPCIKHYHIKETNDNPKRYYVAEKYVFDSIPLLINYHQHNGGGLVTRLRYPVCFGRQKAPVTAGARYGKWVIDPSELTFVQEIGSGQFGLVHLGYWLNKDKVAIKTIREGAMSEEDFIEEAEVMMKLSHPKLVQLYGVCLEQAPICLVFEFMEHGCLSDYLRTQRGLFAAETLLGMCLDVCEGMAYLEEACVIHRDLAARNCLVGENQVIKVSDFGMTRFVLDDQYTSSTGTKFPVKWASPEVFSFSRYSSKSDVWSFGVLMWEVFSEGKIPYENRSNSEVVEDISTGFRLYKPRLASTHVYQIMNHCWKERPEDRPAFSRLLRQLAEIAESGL
Experiment: Fluorescence anisotropy binding of Mant-labelled nucleotides
Source text: Figure 3 An allosteric switch triggers nucleotide exchange. (a) Hydrophobic stack conservation in Src family kinases. The table illustrates the amino acid identity at each of the three positions in the hydrophobic stack in addition to the invariant tryptophan (Trp260 in Src) for all Src family kinase members. The positions are presented according to their N- to C-terminal order in the primary sequences. Where it was not possible to unambiguously determine the identity of the amino acid contributed by the SH2-kinase variable linker (V3), the residue is denoted by a question mark. (b) Small angle X-ray scattering of Itk^32K L351A (black). The scattering curve for wild type Itk^32K (cyan) is overlaid for comparison. […] (c) Rigid body modelling of Itk^32K L351A and fit to ab initio molecular envelope. Displacement of both the SH3 and SH2 domains is required for a good fit to the experimental scattering curve. (d) Determination of the binding constants of Itk^32K L351A for nucleotides by fluorescence anisotropy. […] (e) Determination of the thermal stabilities and relative binding affinities of non-phosphorylated Src^32KΔC L255A for nucleotides by differential scanning fluorimetry. […] TEXT PRINTED IN THE PICTURE: (d) Mant-ADP: Itk^32K L351A (non-phos) Kd (μM): 21.0 ± 2.1 | (d) Mant-ATP: Itk^32K L351A (non-phos) Kd (μM): 31.7 ± 2.7 | (e) ADP: Src^32KΔC L255A (non-phos) [nuc]1/2 (μM): 310 ± 20; Src^32KΔC L255A (non-phos) Tm^max (°C): 52.9; Src^32KΔC L255A (non-phos) ΔTm^max (°C): + 6.8 | (e) ATP: Src^32KΔC L255A (non-phos) [nuc]1/2 (μM): 100 ± 10; Src^32KΔC L255A (non-phos) Tm^max (°C): 54.2; Src^32KΔC L255A (non-phos) ΔTm^max (°C): + 8.1 | (e) apo: Src^32KΔC L255A (non-phos) Tm^max (°C): 46.1
To establish whether hydrophobic stack disassembly triggers a switch in nucleotide binding of the kinase domain, we measured the binding of both unphosphorylated and activation loop phosphorylated (pY511) Itk^32K L351A to ADP and ATP.
The binding constants for ADP and AMPPNP were determined for Src and Itk proteins by fluorescence anisotropy, using 2′/3′-Mant-labelled nucleotides (Jena Bioscience). Increasing concentrations of Itk^32K, Itk^L351A or Src^32K were incubated with 40 μM Mant-nucleotide in 30 mM Tris pH 7.5, 200 mM NaCl, 5 mM MgCl2, and 1 mM TCEP. Measurements were made with a Perkin Elmer LS50B fluorimeter (λex = 355 nm, λem = 447 nm) at 20 °C. For each data point 50–60 measurements, each with an integration time of 1 s, were averaged. For competition nucleotide displacement assays, 40–80 μM of protein was incubated with 40 μM Mant-ADP until equilibrium was established. Unlabelled nucleotide was titrated into the reaction and fluorescence anisotropy monitored. The equilibrium inhibition constant for the unlabelled nucleotide was calculated from the fitted curve.

Nc1ncnc2c1ncn2[C@@H]1O[C@H](COP(=O)(O)OP(=O)(O)O)[C@@H](O)[C@H]1O [ADP]
Kd (Itk^32K L351A non-phosphorylated, read-out: Kd): 21 µM | Kd (activation loop-phosphorylated (pTyr511) Itk^32K L351A, read-out: Kd (binding constant)): 30 µM
